Columns and labels:
[1] = test system: Plasmodium falciparum; assay: ST_JUDE: Plasmodium falciparum 3D7 EC50 (uM) as measured by SYBR green dye; assay type: functional, organism-based
[2] = test system: Plasmodium falciparum; assay: ST_JUDE: Plasmodium falciparum K1 EC50 (uM) as measured by SYBR green dye; assay type: functional, organism-based

| SMILES | EC50 [1] [µM] | EC50 [2] [µM] |
| --- | --- | --- |
| CCC1CCCCN1S(=O)(=O)c1ccc(C(=O)NNc2nc3c(C)cccc3s2)cc1 (centres undefined) | > 15 | > 15 |
| O=C(Nc1ccc(Cl)c(Cl)c1)c1ccc(-c2ccccc2)cc1 | > 15 | > 15 |
| COc1ccc(OC)c(N2C(=O)c3cccc4c([N+](=O)[O-])ccc(c34)C2=O)c1 | > 15 | > 15 |
| C#CCOc1cc(Br)c(C2CC(=O)Nc3ccc4ccccc4c32)cc1OC (centres undefined) | 3.96 | 2.96 |
| CCCN(CCC)Cc1c(O)ccc2c(=O)c(Oc3ccc(OC)cc3)c(C(F)(F)F)oc12 | > 15 | 2.95 |
| COc1ccc2nc(N(Cc3cccnc3)C(=O)C3CCCCC3)sc2c1 | 3.51 | 2.65 |
| CN1C(=O)C(=Cc2ccc(-c3ccc([N+](=O)[O-])cc3O)o2)C(=O)N(C)C1=O | > 15 | > 15 |
| CCCOc1ccc(Oc2nc(NCC)nc(OC)n2)nn1 | 1.87 | 4.24 |
| CCc1ccc(C2C(C(=O)OC)=C(N)OC3=C2C(=O)CC(C)(C)C3)cc1 (centres undefined) | > 15 | > 15 |
| Cc1ccc(NC(=O)Nc2cccc(Cl)c2)cc1F | > 15 | > 15 |
| CCOc1ccc(NC2=C(NCCO)C(=O)c3ccccc3C2=O)cc1 | 3.54 | 4.88 |
| O=[N+]([O-])c1ccc(NC(c2ccccn2)c2ccc3cccnc3c2O)cc1 (centres undefined) | 4.78 | 2.28 |
| Cc1ccc2c(c1)C=C/C(=C\c1cccc[n+]1C)N2C | 0.19 | 0.138 |
| Cc1nn(-c2ccccc2)c2ncc(C(=O)Nc3cccc(Cl)c3)c(O)c12 | > 15 | 4.31 |
| O=S(=O)(Nc1ccc(-c2ccc(N3CCCC3)nn2)cc1)c1ccc(Br)cc1 | > 15 | > 15 |
| COc1ccc(-n2c(=O)c3c4c(sc3n3c(SCc5ccccc5)nnc23)COC(C)(C)C4)cc1 | 11.3 | > 15 |
| CCc1c2cccn2cc[n+]1C | 7.07 | 6.08 |
| CNC(=O)C(=O)N1CCC2(CC1)OCCN2S(=O)(=O)c1ccc(C)cc1 | > 15 | > 15 |
| COc1ccc(CNCCc2ccc(F)cc2)cc1C | > 15 | > 15 |
| CN(C)CCCNc1c2c(nc3ccccc13)CCC2 | > 15 | > 15 |
| Cc1n(C)c2ccccc2[n+]1CC(=O)c1ccc([N+](=O)[O-])cc1 | 1.61 | 2.09 |
| CCCCCC(O)(c1ccc(F)cc1)C(CN1CCOCC1)c1ccc(Cl)cc1 (centres undefined) | 1.83 | 0.935 |

| SMILES | EC50 [1] [µM] | EC50 [2] [µM] |
| --- | --- | --- |
| CC(=O)Oc1ccc2ccccc2c1C(NC(=O)C(C)C)c1ccc(Cl)cc1 (centres undefined) | 4.03 | 4.46 |
| Cc1cccc2sc(N(Cc3cccnc3)C(=O)C3CCCCC3)nc12 | 3.44 | 2.42 |
| CCN(C(=O)c1cc2cc3ccc(OC)cc3nc2o1)c1ccc(F)cc1 | > 15 | > 15 |
| CCCCNC(=S)NCCc1c(C)[nH]c2ccccc12 | > 15 | > 15 |
| CC(=O)N1N=C2C3CCN(CC3)C2C1c1ccc(Br)cc1 (centres undefined) | > 15 | > 15 |
| COCCn1c(SCC(=O)Nc2cccc(F)c2)nc2c(c1=O)SC(C)C2 (centres undefined) | > 15 | > 15 |
| CCCCOC(=O)c1c(N)n(-c2ccccc2OC)c2nc3ccccc3nc12 | 3.83 | > 15 |
| Oc1c(CN2CCCCC2)cc(Br)c2cccnc12 | 3.42 | 2.32 |
| CCc1cccc2c(C#N)cn(Cc3ccc(Br)cc3)c12 | 3.67 | 4 |
| Cc1ccc(N2C(=O)C(Cl)=C(Nc3ccccc3C)C2=O)c(C)c1 | > 15 | > 15 |
| Cc1ccc(Oc2c(C(F)(F)F)oc3c(CN4CCN(C)CC4)c(O)ccc3c2=O)cc1 | 1.43 | 1.22 |
| Brc1ccc(C2=CC(c3ccccc3)n3ncnc3N2)cc1 (centres undefined) | > 15 | > 15 |
| CCOc1cccc(-c2cc(C(=O)Nc3cc(C)ccn3)c3ccccc3n2)c1 | > 15 | > 15 |
| CS(=O)(=O)N(Cc1ccccc1)c1ccccc1C(=O)Nc1cc(Cl)ccc1Cl | 6.12 | 4.58 |
| CCc1cc2c(=O)c(Oc3ccccc3)c(C(F)(F)F)oc2cc1O | > 15 | > 15 |
| CCc1ccc(S(=O)(=O)/N=C2/C=C(Sc3nc[nH]n3)C(=O)c3ccccc32)cc1 | 4.79 | 6.99 |
| CCc1ccc(S(=O)(=O)Nc2ccc(Nc3nc(C)cc(Nc4ccc(OC)cc4)n3)cc2)cc1 | 0.577 | 9.28 |
| CN(C)CCNC(=O)c1[nH]c2ccccc2c1Sc1ccc(Cl)cc1 | 4.53 | 3.5 |
| CCCN(CCC)CCCNC(=O)c1cc2c(-c3ccc(OC)c(OC)c3)nn(C)c2s1 | 4.04 | > 15 |
| CCOCc1cc(CN2CCN(c3cccc(C(F)(F)F)c3)CC2)c(O)c2ncccc12 | 1.41 | 1.49 |
| Cc1cc(C)cc(Nc2nc(NCC3CCCO3)c3ccccc3n2)c1 (centres undefined) | 1.6 | 1.79 |
| CN1c2ccccc2N(C)C1c1ccc(Sc2ccc(C3N(C)c4ccccc4N3C)o2)o1 | > 15 | 1.65 |

| SMILES | EC50 [1] [µM] | EC50 [2] [µM] |
| --- | --- | --- |
| CCc1ccc(NC(=O)CN2N=NC3C(=O)N(c4ccc(Br)cc4)C(=O)C32)cc1 (centres undefined) | > 15 | > 15 |
| CCOc1ccc(Nc2cc(C)nc(Nc3ccc(OCC)cc3)n2)cc1 | > 15 | > 15 |
| O=C(CN(Cc1ccc(Cl)cc1)S(=O)(=O)c1ccccc1)N1CCN(c2ccccc2F)CC1 | 2.91 | 2.13 |
| COc1ccc(NC(=O)Cn2ncc3c(=O)oc4ccc(C)cc4c32)cc1 | > 15 | > 15 |
| O=C(CSc1nccn1-c1ccc(F)cc1)Nc1cc(C(F)(F)F)ccc1Cl | 2.96 | 4.11 |
| CCCCC(=O)NC(c1ccc(C(C)C)cc1)c1cc([N+](=O)[O-])c2cccnc2c1O (centres undefined) | > 15 | 5.13 |
| CCOC(=O)C1=C(c2ccccc2)N=C(S)NC1c1cc(Cl)ccc1OC (centres undefined) | > 15 | > 15 |
| CCOc1ccc(NC(=O)C2Sc3nnc(-c4ccccc4)n3NC2c2ccc(OC)cc2)cc1 (centres undefined) | > 15 | > 15 |
| CCN(CC)CCOC(=O)c1ccc(NC(=O)c2cc3cc4cc(OC)ccc4nc3s2)cc1 | 1.7 | 3.31 |
| CCOc1c(Br)cc(C2C(C#N)=C(N)Oc3cc4c(cc32)OCO4)cc1OC (centres undefined) | 2.32 | 2.73 |
| CCCCOCCCN1C(=O)CSC1c1cnccc1-c1ccc(Br)cc1 (centres undefined) | 2.38 | 1.76 |
| Cc1ccc(/C=C2\C(=O)NC(=O)N(c3ccc(Br)cc3)C2=O)cc1[N+](=O)[O-] | 4.47 | 5.16 |
| CC(C)(C)OC(=O)CCN1C(=O)CSC1c1cnccc1-c1ccc(Br)cc1 (centres undefined) | 2.32 | 3.17 |
| COc1ccc(CCNC(=S)Nc2ccccc2SC)cc1OC | 5.2 | 4.3 |
| CCCNC(=O)C1CN1Cc1ccc(OC)cc1 (centres undefined) | 6.81 | 6.92 |
| CC(=O)NC1=NN(C(C)=O)C(C)(c2cccc(NC(C)=O)c2)S1 (centres undefined) | 3.57 | 4.14 |
| O=C(C1CCCCC1)N(Cc1cccnc1)c1nc2ccc(F)cc2s1 | > 15 | 3.41 |
| C[N+]1(CCCCCCCCCCCO)CCCCC1 | > 15 | > 15 |
| CCc1c(C)nc(-n2nc(C)cc2NC(=O)c2ccccc2I)nc1O | > 15 | > 15 |
| COc1ccc(Cl)cc1NC(=S)N1CCN(c2ccc(C#N)cc2)CC1 | 0.857 | 1.29 |
| Cc1ccc(C)c(Oc2c(C(F)(F)F)oc3c(CN4CCN(Cc5ccccc5)CC4)c(O)ccc3c2=O)c1 | 0.612 | 0.274 |
| Cc1ccc(C(NC(=O)CC(C)C)c2ccc3cccnc3c2O)cc1 (centres undefined) | > 15 | > 15 |

| SMILES | EC50 [1] [µM] | EC50 [2] [µM] |
| --- | --- | --- |
| COc1ccc2nc(C)cc(Nc3cccc(Cl)c3)c2c1 | 1.24 | 9.41 |
| CCO/C(O)=C1\C(C)=NC2=C(C(=O)CC(C)(C)C2)C1c1ccc(Cl)cc1Cl (centres undefined) | 2.95 | 1.92 |
| COc1ccc(C2Sc3ccccc3N=C3C2=C(O)c2ccccc23)cc1 (centres undefined) | 1.74 | 2.31 |
| CCN(CC)c1ccc(/C=N/NC(=O)c2cccc(NC(=O)c3ccc(C)cc3)c2)c(O)c1 | 5.46 | > 15 |
| O=C(Nc1ccc(F)cc1)C1c2ccccc2C(=O)N(C2CCCC2)C1c1cccs1 (centres undefined) | 0.808 | 0.975 |
| CCCCn1c(N)c(C#N)c2nc3ccccc3nc21 | 1.52 | 6.01 |
| CCCc1cc(O)nc(-n2nc(C)cc2NC(=O)c2ccc(C(C)(C)C)cc2)n1 | > 15 | 8.64 |
| C=CCOC(=O)C1=C(C)N=C(C)/C(=C(\O)OCC=C)C1c1ccc(OC)c(OC)c1 (centres undefined) | 4.4 | 5.93 |
| N=C(N/N=C\c1ccc(Br)cc1)N/N=C\c1ccc(Br)cc1 | 2.3 | > 15 |
| Fc1ccc(-c2nc3ncccn3c2Nc2cccc(C(F)(F)F)c2)cc1 | 0.921 | 1.22 |
| Cc1ccc(C2Nn3c(nnc3-c3ccccc3)SC2C(=O)N2CCCCCC2)cc1 (centres undefined) | 2.94 | 3.91 |
| O=C(CN1C2=NCCN2c2ccccc21)c1ccc(Cl)cc1Cl | 3.28 | 3.65 |
| COC(=O)Nc1ccc(S(=O)(=O)ON=C2C=C(C(C)(C)C)C(=O)C(C(C)(C)C)=C2)cc1 | 6.84 | 0.389 |
| COc1ccccc1Cn1ccnc1SCC(=O)Nc1cccc(C(F)(F)F)c1 | 1.47 | 1.59 |
| CCN1CCN(CCCNC(=O)c2cc3cc4ccc(Cl)cc4nc3o2)CC1 | 4.54 | > 15 |
| O=S(=O)(/N=C(\Nc1ccc(Br)cc1)c1ccccc1)c1ccccc1 | > 15 | > 15 |
| COc1ccc(/C=C/c2cc[n+](C)cc2)cc1 | 3.4 | 3.82 |
| Cc1cccc(C(=O)NCc2nnc(S)n2-c2cccc(C(F)(F)F)c2)c1 | > 15 | > 15 |
| CC(C)c1ccc(NC(=O)CSc2n[nH]c(-c3ccccc3Cl)n2)cc1 | 4.78 | 4.96 |
| COc1ccccc1C1CC(c2ccccc2)=NN1C(=O)c1ccccc1 (centres undefined) | 0.855 | 4.32 |
| CCOC(=O)C(NC(C)=O)(Nc1ccc(S(=O)(=O)Nc2cc(C)on2)cc1)C(F)(F)F (centres undefined) | 2.04 | 4.56 |
